# Literature values in US20240100069A1, “Methods and Compositions for Treating Amyotrophic Lateral Sclerosis” (Amylyx Pharmaceuticals, Inc., priority 2022, published 2024).
# Key:
# [1] = in vivo
# CYP 1A2 = target: T1, CYP 1A2 (Homo sapiens, UniProt P05177); conditions: at 20 times the intended clinical concentration (Cmax)
# T1 sequence (P05177 1-516): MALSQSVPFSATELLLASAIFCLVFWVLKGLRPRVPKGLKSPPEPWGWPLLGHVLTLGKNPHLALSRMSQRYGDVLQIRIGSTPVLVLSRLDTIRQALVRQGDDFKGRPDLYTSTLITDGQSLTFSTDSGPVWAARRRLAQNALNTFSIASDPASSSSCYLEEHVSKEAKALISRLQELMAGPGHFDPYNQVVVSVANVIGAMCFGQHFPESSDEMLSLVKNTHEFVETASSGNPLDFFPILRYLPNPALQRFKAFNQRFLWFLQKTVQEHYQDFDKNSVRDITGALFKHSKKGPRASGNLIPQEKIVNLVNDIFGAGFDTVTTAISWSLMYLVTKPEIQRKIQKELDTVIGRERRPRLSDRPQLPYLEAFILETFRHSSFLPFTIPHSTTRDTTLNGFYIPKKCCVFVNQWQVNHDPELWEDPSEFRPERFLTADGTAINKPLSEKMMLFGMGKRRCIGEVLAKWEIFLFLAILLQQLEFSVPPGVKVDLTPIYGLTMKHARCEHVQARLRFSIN
# CYP 2D6 = CYP 2D6 (Homo sapiens, UniProt P10635); conditions: at 20 times the intended clinical concentration (Cmax)
# [2] = tested on: G393A SODI mouse model of ALS
# Chain of CYP 2D6 (P10635 whole entry): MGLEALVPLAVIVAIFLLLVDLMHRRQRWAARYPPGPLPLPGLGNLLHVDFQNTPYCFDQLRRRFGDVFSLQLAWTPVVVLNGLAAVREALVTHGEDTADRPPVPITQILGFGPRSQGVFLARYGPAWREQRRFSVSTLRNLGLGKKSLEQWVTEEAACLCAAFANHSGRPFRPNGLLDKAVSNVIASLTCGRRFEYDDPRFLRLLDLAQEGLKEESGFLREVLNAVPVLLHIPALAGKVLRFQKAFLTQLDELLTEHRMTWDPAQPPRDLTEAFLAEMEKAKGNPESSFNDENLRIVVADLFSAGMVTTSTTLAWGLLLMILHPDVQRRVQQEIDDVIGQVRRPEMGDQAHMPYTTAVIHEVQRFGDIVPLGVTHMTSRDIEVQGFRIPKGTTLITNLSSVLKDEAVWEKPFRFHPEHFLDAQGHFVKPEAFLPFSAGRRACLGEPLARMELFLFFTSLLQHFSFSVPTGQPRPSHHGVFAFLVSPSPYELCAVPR
molecule,measurement,setting,value
"C[C@H](CCC(=O)NCCS(=O)(=O)O)[C@H]1CC[C@H]2[C@@H]3[C@@H](O)C[C@@H]4C[C@H](O)CC[C@]4(C)[C@H]3CC[C@]12C [TURSO, tauroursodeoxycholic acid]","most common adverse reactions reported (abdominal discomfort, abdominal pain, diarrhea, nausea, pruritus, rash), frequency",[1],≥ 1%
Phenylacetylacetate,inhibition of CYP 1A2,CYP 1A2,inhibitory
same,inhibition of CYP 2D6,CYP 2D6,inhibitory
"O=C(O)CCCc1ccccc1 [Phenylbutyrate, sodium phenylbutyrate]",survival in in vivo models,[2],increase survival
